Test results taken from article doi:10.1101/2025.06.19.660642, “Discovery of orally bioavailable Zika and West Nile Virus antiviral compounds targeting the NS2B-NS3 protease” (bioRxiv, 2025).

target: T1, ZIKV NS2B-NS3 protease (Zika virus, UniProt A0A024B7W1); test: ZIKV NS2B-NS3 protease biochemical FRET assay; details: @ 100 μM
T1 construct: directed at the co-expressed ZIKV NS2B-NS3 protease
T1 sequence (A0A024B7W1 1503-1680): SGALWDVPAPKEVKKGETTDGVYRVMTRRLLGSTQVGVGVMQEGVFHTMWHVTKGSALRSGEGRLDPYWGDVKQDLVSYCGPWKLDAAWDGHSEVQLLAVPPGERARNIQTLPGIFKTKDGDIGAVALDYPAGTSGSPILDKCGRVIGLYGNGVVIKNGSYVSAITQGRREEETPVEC
T1 sequence (A0A024B7W1 1425-1464): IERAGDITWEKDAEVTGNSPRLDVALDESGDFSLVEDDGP

Compound | inhibition in biochemical assay
CC(C)(CO)NC(=O)c1cccc(Cl)c1 [Z68299550] | n.i.

same assay, conditions: Ligand efficiency = pKi / heavy atom count

Compound | Ligand efficiency (LE)
O=C(Nc1cc(Cl)cc(C(=O)Nc2ccc3c(c2)CNC3)c1)OCc1ccccc1 [ASAP-0020915] | 0.316
NCc1cccc(NC(=O)c2cc(Cl)cc(NC(=O)OCc3ccccc3)c2)c1 [ASAP-0016806] | 0.259

same assay, conditions: ZIKV NS2B-NS3 Ki

Compound | Ki [µM]
C=CC[C@@H](Nc1ccc2c(c1)CNC2)c1cc(Cl)cc2[nH]ncc12 [ASAP-0029049] | 7.1
NCc1cccc(NC(=O)c2cc(Cl)cc(NC(=O)OCc3ccccc3)c2)c1 [ASAP-0016806] | 4.3

same assay, conditions: ZIKV NS2B-NS3 Ki (uM), library 1, supplement

Compound | Ki [µM]
NCCc1ccc(NC(=O)c2cc(Cl)cc(NC(=O)OCc3ccccc3)c2)cc1 [ASAP-0017692, NCCc1ccc(NC(=O)c2cc(Cl)cc(NC(=O)OCc3ccccc3)c2)cc1] | 9.64
O=C(Nc1cc(Cl)cc(C(=O)NCC2(CO)CCNCC2)c1)OCc1ccccc1 [ASAP-0021096, O=C(Nc1cc(Cl)cc(C(=O)NCC2(CO)CCNCC2)c1)OCc1ccccc1] | > 89.3
NCCCc1ccc(F)c(NC(=O)c2cc(Cl)cc(NC(=O)OCc3ccccc3)c2)c1 [ASAP-0021296, NCCCc1ccc(F)c(NC(=O)c2cc(Cl)cc(NC(=O)OCc3ccccc3)c2)c1] | 5.63
NCc1ccc(NC(=O)c2cc(Cl)cc(NC(=O)OCc3ccccc3)c2)cc1 [ASAP-0017575, NCc1ccc(NC(=O)c2cc(Cl)cc(NC(=O)OCc3ccccc3)c2)cc1] | 9.23
O=C(Nc1cc(Cl)cc(C(=O)Nc2ncc(C3CNC3)s2)c1)OCc1ccccc1 [ASAP-0021562, O=C(NC1=CC(Cl)=CC(C(=O)NC2=NC=C(C3CNC3)S2)=C1)OCC1=CC=CC=C1] | > 89.3
NC[C@H]1CC[C@H](CNC(=O)c2cc(Cl)cc(NC(=O)OCc3ccccc3)c2)CC1 [ASAP-0017744, NC[C@H]1CC[C@H](CNC(=O)c2cc(Cl)cc(NC(=O)OCc3ccccc3)c2)CC1] | 23.1
NCCCc1ccnc(NC(=O)c2cc(Cl)cc(NC(=O)OCc3ccccc3)c2)c1 [ASAP-0021210, NCCCc1ccnc(NC(=O)c2cc(Cl)cc(NC(=O)OCc3ccccc3)c2)c1] | 16.5
NCc1nc(CNC(=O)c2cc(Cl)cc(NC(=O)OCc3ccccc3)c2)cs1 [ASAP-0021116, NCc1nc(CNC(=O)c2cc(Cl)cc(NC(=O)OCc3ccccc3)c2)cs1] | > 89.3
Cn1nc(CCN)nc1NC(=O)c1cc(Cl)cc(NC(=O)OCc2ccccc2)c1 [ASAP-0021177, Cn1nc(CCN)nc1NC(=O)c1cc(Cl)cc(NC(=O)OCc2ccccc2)c1] | 28.1
O=C(Nc1cc(Cl)cc(C(=O)NCc2n[nH]c3c2CNCC3)c1)OCc1ccccc1 [ASAP-0021271, O=C(Nc1cc(Cl)cc(C(=O)NCc2n[nH]c3c2CNCC3)c1)OCc1ccccc1] | > 89.3
NCc1cc(F)cc(NC(=O)c2cc(Cl)cc(NC(=O)OCc3ccccc3)c2)c1 [ASAP-0021659, NCc1cc(F)cc(NC(=O)c2cc(Cl)cc(NC(=O)OCc3ccccc3)c2)c1] | 5.26
Cn1nc(NC(=O)c2cc(Cl)cc(NC(=O)OCc3ccccc3)c2)c2c1CNC2 [ASAP-0021036, Cn1nc(NC(=O)c2cc(Cl)cc(NC(=O)OCc3ccccc3)c2)c2c1CNC2] | > 89.3
NC12CCC(CNC(=O)c3cc(Cl)cc(NC(=O)OCc4ccccc4)c3)(CC1)OC2 [ASAP-0021132, NC12CCC(CNC(=O)c3cc(Cl)cc(NC(=O)OCc4ccccc4)c3)(CC1)OC2] | 29.7
CN(C(=O)c1cc(Cl)cc(NC(=O)OCc2ccccc2)c1)c1ccc(CN)cc1 [ASAP-0017677, CN(C(=O)c1cc(Cl)cc(NC(=O)OCc2ccccc2)c1)c1ccc(CN)cc1] | > 89.3
O=C(Nc1cc(Cl)cc(C(=O)Nc2cccc(C3CCNCC3)c2)c1)OCc1ccccc1 [ASAP-0017708, O=C(Nc1cc(Cl)cc(C(=O)Nc2cccc(C3CCNCC3)c2)c1)OCc1ccccc1] | 11.2
O=C(Nc1cc(Cl)cc(C(=O)Nc2cc3n(n2)CCNC3)c1)OCc1ccccc1 [ASAP-0020976, O=C(Nc1cc(Cl)cc(C(=O)Nc2cc3n(n2)CCNC3)c1)OCc1ccccc1] | > 89.3
CNCc1cccc(NC(=O)c2cc(Cl)cc(NC(=O)OCc3ccccc3)c2)c1 [ASAP-0021616, CNCc1cccc(NC(=O)c2cc(Cl)cc(NC(=O)OCc3ccccc3)c2)c1] | 17.6
O=C(Nc1cc(Cl)cc(C(=O)Nc2nc3c(s2)CCNC3)c1)OCc1ccccc1 [ASAP-0021029, O=C(Nc1cc(Cl)cc(C(=O)Nc2nc3c(s2)CCNC3)c1)OCc1ccccc1] | 48
NCC12CC(NC(=O)c3cc(Cl)cc(NC(=O)OCc4ccccc4)c3)(CCO1)C2 [ASAP-0021607, NCC12CC(NC(=O)c3cc(Cl)cc(NC(=O)OCc4ccccc4)c3)(CCO1)C2] | > 89.3

Compound | Ki [µM]
NCCc1nsc(NC(=O)c2cc(Cl)cc(NC(=O)OCc3ccccc3)c2)n1 [ASAP-0021153, NCCc1nsc(NC(=O)c2cc(Cl)cc(NC(=O)OCc3ccccc3)c2)n1] | > 89.3
O=C(Nc1cc(Cl)cc(C(=O)Nc2n[nH]c3c2CNC3)c1)OCc1ccccc1 [ASAP-0021061, O=C(Nc1cc(Cl)cc(C(=O)Nc2n[nH]c3c2CNC3)c1)OCc1ccccc1] | 36.1
C[C@H](N)c1cccc(NC(=O)c2cc(Cl)cc(NC(=O)OCc3ccccc3)c2)c1 [ASAP-0021091, C[C@H](N)c1cccc(NC(=O)c2cc(Cl)cc(NC(=O)OCc3ccccc3)c2)c1] | 12.3
CN(C)Cc1cc(NC(=O)c2cc(Cl)cc(NC(=O)OCc3ccccc3)c2)sn1 [ASAP-0020825, CN(C)Cc1cc(NC(=O)c2cc(Cl)cc(NC(=O)OCc3ccccc3)c2)sn1] | > 89.3
Cn1nc2c(c1NC(=O)c1cc(Cl)cc(NC(=O)OCc3ccccc3)c1)CNC2 [ASAP-0020883, Cn1nc2c(c1NC(=O)c1cc(Cl)cc(NC(=O)OCc3ccccc3)c1)CNC2] | > 89.3
Cn1nc2c(c1NC(=O)c1cc(Cl)cc(NC(=O)OCc3ccccc3)c1)CNCC2 [ASAP-0021291, Cn1nc2c(c1NC(=O)c1cc(Cl)cc(NC(=O)OCc3ccccc3)c1)CNCC2] | 19.7
NC1CCN(C(=O)c2cc(Cl)cc(NC(=O)OCc3ccccc3)c2)CC1 [ASAP-0017695, NC1CCN(C(=O)c2cc(Cl)cc(NC(=O)OCc3ccccc3)c2)CC1] | > 89.3
O=C(Nc1cc(Cl)cc(C(=O)Nc2cccc(CC3CCNCC3)c2)c1)OCc1ccccc1 [ASAP-0017638, O=C(Nc1cc(Cl)cc(C(=O)Nc2cccc(CC3CCNCC3)c2)c1)OCc1ccccc1] | > 89.3
O=C(Nc1cc(Cl)cc(C(=O)Nc2ccc3c(c2)CNCCO3)c1)OCc1ccccc1 [ASAP-0021552, O=C(Nc1cc(Cl)cc(C(=O)Nc2ccc3c(c2)CNCCO3)c1)OCc1ccccc1] | 6.9
Cc1ccc(NC(=O)c2cc(Cl)cc(NC(=O)OCc3ccccc3)c2)cc1CN [ASAP-0021119, Cc1ccc(NC(=O)c2cc(Cl)cc(NC(=O)OCc3ccccc3)c2)cc1CN] | 9.81
NCC1CCN(C(=O)c2cc(Cl)cc(NC(=O)OCc3ccccc3)c2)CC1 [ASAP-0017689, NCC1CCN(C(=O)c2cc(Cl)cc(NC(=O)OCc3ccccc3)c2)CC1] | 87.4
NCc1nccc(NC(=O)c2cc(Cl)cc(NC(=O)OCc3ccccc3)c2)n1 [ASAP-0017603, NCc1nccc(NC(=O)c2cc(Cl)cc(NC(=O)OCc3ccccc3)c2)n1] | > 89.3
O=C(Nc1cc(Cl)cc(C(=O)Nc2ncc3n2CCNC3)c1)OCc1ccccc1 [ASAP-0020975, O=C(Nc1cc(Cl)cc(C(=O)Nc2ncc3n2CCNC3)c1)OCc1ccccc1] | > 89.3
NC[C@]1(F)C[C@@H](NC(=O)c2cc(Cl)cc(NC(=O)OCc3ccccc3)c2)C1 [ASAP-0021480, NC[C@]1(F)C[C@@H](NC(=O)c2cc(Cl)cc(NC(=O)OCc3ccccc3)c2)C1] | 61.6
CN(C)Cc1csc(NC(=O)c2cc(Cl)cc(NC(=O)OCc3ccccc3)c2)n1 [ASAP-0021243, CN(C)Cc1csc(NC(=O)c2cc(Cl)cc(NC(=O)OCc3ccccc3)c2)n1] | > 89.3
NC1(c2cccc(NC(=O)c3cc(Cl)cc(NC(=O)OCc4ccccc4)c3)c2)CCC1 [ASAP-0017671, NC1(c2cccc(NC(=O)c3cc(Cl)cc(NC(=O)OCc4ccccc4)c3)c2)CCC1] | > 89.3
O=C(Nc1cc(Cl)cc(C(=O)Nc2cccc3c2CNC3)c1)OCc1ccccc1 [ASAP-0021189, O=C(Nc1cc(Cl)cc(C(=O)Nc2cccc3c2CNC3)c1)OCc1ccccc1] | 67.8
CN1CCc2nc(NC(=O)c3cc(Cl)cc(NC(=O)OCc4ccccc4)c3)sc2C1 [ASAP-0020935, CN1CCc2nc(NC(=O)c3cc(Cl)cc(NC(=O)OCc4ccccc4)c3)sc2C1] | > 89.3

same assay, conditions: ZIKV NS2B-NS3 pKi, library 1, supplement

Compound | Ki [µM]
NCCCc1cccc(NC(=O)c2cc(Cl)cc(NC(=O)OCc3ccccc3)c2)n1 [ASAP-0021169, NCCCc1cccc(NC(=O)c2cc(Cl)cc(NC(=O)OCc3ccccc3)c2)n1] | 17

same assay, conditions: library 1, supplement

Compound | ZIKV NS2B-NS3 pKi
NC[C@H]1C[C@@H](CNC(=O)c2cc(Cl)cc(NC(=O)OCc3ccccc3)c2)CCO1 [ASAP-0021664, NC[C@H]1C[C@@H](CNC(=O)c2cc(Cl)cc(NC(=O)OCc3ccccc3)c2)CCO1 ¦&1:2,&2:4¦] | < 4.05
O=C(Nc1cc(Cl)cc(C(=O)Nc2ccc3c(c2)CNC3)c1)OCc1ccccc1 [ASAP-0020915] | 6.77
O=C(Nc1cc(Cl)cc(C(=O)NC2([C@H]3CCNC3)CC2)c1)OCc1ccccc1 [ASAP-0021452, O=C(Nc1cc(Cl)cc(C(=O)NC2([C@H]3CCNC3)CC2)c1)OCc1ccccc1 ¦&1:13¦] | < 4.05
C[C@]1(CNC(=O)c2cc(Cl)cc(NC(=O)OCc3ccccc3)c2)CNCCOC1 [ASAP-0021641, C[C@]1(CNC(=O)c2cc(Cl)cc(NC(=O)OCc3ccccc3)c2)CNCCOC1 ¦&1:1¦] | < 4.05
C=CC[C@@]1(NC(=O)c2cc(Cl)cc(NC(=O)OCc3ccccc3)c2)CCNC1 [ASAP-0021490, C=CC[C@@]1(NC(=O)c2cc(Cl)cc(NC(=O)OCc3ccccc3)c2)CCNC1 ¦&1:3¦] | < 4.05
O=C(Nc1cc(Cl)cc(C(=O)NC[C@@H]2CCNC3(CC3)C2)c1)OCc1ccccc1 [ASAP-0021400, O=C(Nc1cc(Cl)cc(C(=O)NC[C@@H]2CCNC3(CC3)C2)c1)OCc1ccccc1 ¦&1:13¦] | < 4.05
O=C(Nc1cc(Cl)cc(C(=O)NC[C@@H]2CC3(CNC3)CO2)c1)OCc1ccccc1 [ASAP-0021589, O=C(Nc1cc(Cl)cc(C(=O)NC[C@@H]2CC3(CNC3)CO2)c1)OCc1ccccc1 ¦&1:13¦] | 4.38

same assay, conditions: library 1, supplement; read-out: ZIKV NS2B-NS3 Ki

Compound | Ki [µM]
NC[C@H]1C[C@@H](CNC(=O)c2cc(Cl)cc(NC(=O)OCc3ccccc3)c2)CCO1 [ASAP-0021664, NC[C@H]1C[C@@H](CNC(=O)c2cc(Cl)cc(NC(=O)OCc3ccccc3)c2)CCO1 ¦&1:2,&2:4¦] | > 89.3
O=C(Nc1cc(Cl)cc(C(=O)Nc2ccc3c(c2)CNC3)c1)OCc1ccccc1 [ASAP-0020915] | 0.164
O=C(Nc1cc(Cl)cc(C(=O)NC2([C@H]3CCNC3)CC2)c1)OCc1ccccc1 [ASAP-0021452, O=C(Nc1cc(Cl)cc(C(=O)NC2([C@H]3CCNC3)CC2)c1)OCc1ccccc1 ¦&1:13¦] | > 89.3
C[C@]1(CNC(=O)c2cc(Cl)cc(NC(=O)OCc3ccccc3)c2)CNCCOC1 [ASAP-0021641, C[C@]1(CNC(=O)c2cc(Cl)cc(NC(=O)OCc3ccccc3)c2)CNCCOC1 ¦&1:1¦] | > 89.3
C=CC[C@@]1(NC(=O)c2cc(Cl)cc(NC(=O)OCc3ccccc3)c2)CCNC1 [ASAP-0021490, C=CC[C@@]1(NC(=O)c2cc(Cl)cc(NC(=O)OCc3ccccc3)c2)CCNC1 ¦&1:3¦] | > 89.3
O=C(Nc1cc(Cl)cc(C(=O)NC[C@@H]2CCNC3(CC3)C2)c1)OCc1ccccc1 [ASAP-0021400, O=C(Nc1cc(Cl)cc(C(=O)NC[C@@H]2CCNC3(CC3)C2)c1)OCc1ccccc1 ¦&1:13¦] | > 89.3
O=C(Nc1cc(Cl)cc(C(=O)NC[C@@H]2CC3(CNC3)CO2)c1)OCc1ccccc1 [ASAP-0021589, O=C(Nc1cc(Cl)cc(C(=O)NC[C@@H]2CC3(CNC3)CO2)c1)OCc1ccccc1 ¦&1:13¦] | 41.3
